According to patent US20240173289A1, “USE OF OXYMETHYL-MODIFIED DERIVATIVE OF QUERCETIN IN PREPARATION OF DRUG FOR INHIBITING TUMOR CELL PROLIFERATION” (ZHEJIANG UNIVERSITY, priority 2021, published 2024):

Columns and labels:
Format in all cases: cell-based
[1] = tested on: breast cancer cells MDA-MB-231; test: scratch closure test; conditions: 2 mg/L, 24 h
Protocol: (§1) Cells with a certain density (6×10^5 cells per mL for AGS, T47D, Caco2, BCPAP, GES, HUVEC; 5×10^5 cells per mL for HepG2, MDA-MB-231, BGC-823, A549, PC3, L02; 3×10^5 cells per mL for 143B, HOS, U2, SGC-7901, Hela, BV-2; and 1.8×10^6 cells per mL for WI-38) were spread on a 6-well plate (1 mL per well), added with a DMEM medium containing 10% fetal calf serum, and cultured overnight to form a monolayer of cells. A horizontal scratch was scratched on the monolayer of cells with a pipette tip of 200 μL, washed with PBS 3 times, added into a DMEM medium containing 10% fetal bovine serum, and then added with corresponding dosages of a quercetin 3,3′-dimethyl ether solution (the dosage of osteosarcoma cells was 143B: 4 mg/L, HOS: 4 mg/L, U2: 10 mg/L; the dosage of breast cancer cells was MDA-MB-231: 2 mg/L, T47D: 3 mg/L; the dosage of gastric cancer cells was SGC7901: 6 mg/L, BGC823: 5 mg/L, AGS: 3 mg/L; the dosage of cervical cancer Hela cells was 2 mg/L; the dosage of lung cancer cell A549 was 3 mg/L; the dosage of intestinal cancer cells Caco2 was 4 mg/L; the dosage of mouse glioma BV2 was 4 mg/L; the dosage of human prostate cancer cells PC3 was 6 mg/L; and the dosage of human thyroid cancer cells BCPAP was 2 mg/L), while DMSO was used as a solvent control, and then incubated for 24 h. A scratch width and a measurement width were determined under a microscope, and a scratch closure ratio was calculated as follows: scratch closure ratio=(scratch width−measurement width)/scratch width×100%. Scratch inhibition ratio=(scratch closure ratio of control group−scratch closure ratio of treatment group)/scratch closure ratio of control group×100%.

breast cancer cells T47D [2] = test: scratch closure test; conditions: 3 mg/L, 24 h
Protocol: as §1

[3] = tested on: gastric cancer cells BGC-823; test: scratch closure test; conditions: Homo sapiens, BGC823, 5 mg/L, 24 h, versus control group, read-out: inhibition rate of scratch closure
Protocol: as §1

[4] = tested on: gastric cancer cells SGC-7901; test: scratch closure test; conditions: 24 h
Protocol: as §1

[5] = tested on: human prostate cancer cells PC3; test: scratch closure test; conditions: 6 mg/L, 24 h
Protocol: as §1

[6] = tested on: intestinal cancer cells Caco2; test: scratch closure test; conditions: 24 h
Protocol: as §1

lung cancer cell A549 [7] = test: scratch closure test; conditions: Homo sapiens, 3 mg/L, 24 h, versus control group, read-out: inhibition rate of scratch closure
Protocol: as §1

HepG2 = test: apoptosis, AnnexinV-FITC/PI flow cytometry; conditions: 24 h, dosage not given
Source text: (§2) The tumor cells growing in the logarithmic phase were digested with trypsin, collected by centrifugation to prepare a suspension, the cells were counted and adjusted to a certain concentration (6×10^5 cells per mL for AGS, T47D, Caco2, BCPAP, GES, HUVEC; 5×10^5 cells per mL for HepG2, MDA-MB-231, BGC-823, A549, PC3, L02; 3×10^5 cells per mL for 143B, HOS, U2, SGC-7901, Hela, BV-2; 1.8×10^6 cells per mL for WI-38), and the cells at a certain concentration were transferred to a 6-well plate at a concentration of 1 mL per well. The cells were cultured in a cell culture incubator for 12 h to allow the cells to adhere to the wall. The corresponding dosages of a quercetin 3,3′-dimethyl ether solution were added (the dosage of osteosarcoma cells was 143B: 4 mg/L, HOS: 4 mg/L, U2: 10 mg/L; the dosage of breast cancer cells was MDA-MB-231: 2 mg/L, T47D: 3 mg/L; the dosage of gastric cancer cells was SGC7901: 6 mg/L, BGC823: 5 mg/L, AGS: 3 mg/L; the dosage of cervical cancer Hela cells was 2 mg/L; the dosage of lung cancer cell A549 was 3 mg/L; the dosage of intestinal cancer cells Caco2 was 4 mg/L; the dosage of mouse glioma BV2 was 4 mg/L; the dosage of human prostate cancer cells PC3 was 6 mg/L; and the dosage of human thyroid cancer cells BCPAP was 2 mg/L). While DMSO was used as a solvent control, and then incubated for 24 h. After acting for 24 h, the cells were collected by centrifugation at 300 g, 4° C. for 5 min, a supernatant was discarded, and the cells were washed twice with pre-cooled PBS, each time with centrifugation at 300 g, 4° C. for 5 min. (1˜5)×10^5 cells were collected and resuspended in […] 1× BindingBuffer. 5 μl of AnnexinV-FITC and 5 μl of PI were added, and mixed well gently. The cells were reacted at room temperature for 10 min in the dark. 400 μl of 1× Binding Buffer was added, mixed well, and the samples were detected by flow cytometry within 1 h. The analysis was conducted according to a standard detection procedure of flow cytometry, at an excitation wavelength of 488 nm, and 20,000 cells were counted, and obtained results were analyzed with cell cycle fitting software ModFit.

[8] = tested on: breast cancer cells MDA-MB-231; test: apoptosis, AnnexinV-FITC/PI flow cytometry; conditions: 2 mg/L, 24 h
Source text: as §2

breast cancer cells T47D [9] = test: apoptosis, AnnexinV-FITC/PI flow cytometry; conditions: 3 mg/L, 24 h
Source text: as §2

[10] = tested on: cervical cancer Hela cells; test: apoptosis, AnnexinV-FITC/PI flow cytometry; conditions: 2 mg/L, 24 h
Source text: as §2

gastric cancer cells AGS = test: apoptosis, AnnexinV-FITC/PI flow cytometry; conditions: 3 mg/L, 24 h
Source text: as §2

[11] = tested on: gastric cancer cells BGC-823; test: apoptosis, AnnexinV-FITC/PI flow cytometry; conditions: 5 mg/L, 24 h
Source text: as §2

[12] = tested on: human prostate cancer cells PC3; test: apoptosis, AnnexinV-FITC/PI flow cytometry; conditions: 6 mg/L, 24 h
Source text: as §2

[13] = tested on: intestinal cancer cells Caco2; test: apoptosis, AnnexinV-FITC/PI flow cytometry; conditions: 4 mg/L, 24 h
Source text: as §2

lung cancer cell A549 [14] = test: apoptosis, AnnexinV-FITC/PI flow cytometry; conditions: 3 mg/L, 24 h
Source text: as §2

mouse glioma BV2 = test: apoptosis, AnnexinV-FITC/PI flow cytometry; conditions: BV-2; 4 mg/L; 24 h
Source text: as §2

osteosarcoma cells 143B = test: apoptosis, AnnexinV-FITC/PI flow cytometry; conditions: 4 mg/L, 24 h
Source text: as §2

osteosarcoma cells HOS = test: apoptosis, AnnexinV-FITC/PI flow cytometry; conditions: 4 mg/L, 24 h
Source text: as §2

[15] = Homo sapiens, versus control group, read-out: inhibition rate of scratch closure

COc1cc(-c2oc3cc(O)cc(O)c3c(=O)c2OC)ccc1O [Quercetin 3,3′-dimethyl ether, quercetin 3,3′-dimethyl ether]
Treatment scratch closed % [1]: 16.72 ± 3.87 % | inhibition at 2 µg/mL [1, 15]: 82% | Treatment scratch closed % (breast cancer cells T47D [2]): 31.83 ± 6.01 % | inhibition at 3 µg/mL (breast cancer cells T47D [2]; [15]): 64.1% | inhibition at 5 µg/mL [3]: 73.7% | Treatment scratch closed % ([4]; 6 mg/L): 25.05 ± 10.1 % | inhibition at 6 µg/mL ([4]; Homo sapiens, SGC7901, 6 mg/L, versus control group, read-out: inhibition rate of scratch closure): 72% | Treatment scratch closed % [5]: 24.76 ± 5.55 % | inhibition at 6 µg/mL [5, 15]: 70.9% | Treatment scratch closed % ([6]; 4 mg/L): 28.37 ± 10.21 % | inhibition at 4 µg/mL ([6]; Homo sapiens, Caco-2, 4 mg/L, versus control group, read-out: inhibition rate of scratch closure): 66.6% | inhibition at 3 µg/mL (lung cancer cell A549 [7]): 69.6% | Treatment apoptosis ratio % (HepG2): 32.36 ± 5.26 % | Treatment apoptosis ratio % [8]: 29.85 ± 4.49 % | Treatment apoptosis ratio % (breast cancer cells T47D [9]): 16.98 ± 1.37 % | Treatment apoptosis ratio % [10]: 20.05 ± 4.31 % | Treatment apoptosis ratio % (gastric cancer cells AGS): 29.47 ± 2.25 % | Treatment apoptosis ratio % [11]: 26.68 ± 3.45 % | Treatment apoptosis ratio % [12]: 21.13 ± 5.11 % | Treatment apoptosis ratio % [13]: 22.81 ± 3.72 *^ % | Treatment apoptosis ratio % (lung cancer cell A549 [14]): 20.28 ± 3.23 % | Treatment apoptosis ratio % (mouse glioma BV2): 18.65 ± 0.39 % | Treatment apoptosis ratio % (osteosarcoma cells 143B): 24.72 ± 2.82 % | Treatment apoptosis ratio % (osteosarcoma cells HOS): 23.09 ± 4.36 %
